Data reported in patent US20020179457A1, “Electrochemical method for high-throughput screening of minute quantities of candidate compounds” (priority 2001, published 2002).

Experiments:
[1] = target: horseradish peroxidase (Armoracia rusticana, UniProt P00433); settings: pH 7
Experimental: A system with a total volume of 0.1 mL comprising a flow cell is constructed. The cell comprises a detection chamber having an interior volume of 5 μl, an inlet for directing a stream of liquid into the detection chamber, and an outlet for directing liquid out of the detection chamber. The detection chamber contains a working electrode for assessing the capability of candidate compounds for inhibiting the catalytic activity of horseradish peroxidase, a carbon paste counter electrode, and downstream from the working electrode, near the outlet, a standard calomel reference electrode. The working electrode is formed by co-depositing on a conductive substrate horseradish peroxidase and a redox polymer formed of poly(4-vinyl pyridine) partially reacted with 2-bromoethylamine and partially complexed with [Os(bpy)2Cl]^+/2+ where bpy=2,2′-bipyridine complex of osmium (2+/3+) and poly(4-vinyl pyridine). The horseradish peroxidase and the redox polymer are crosslinked on the substrate by periodate oxidation, whereby aldehyde functions are produced in the oligosaccharides of the peroxidase, and by adding PEGDGE, polyethylene glycol diglycidyl ether.
An aqueous pH 7 phosphate buffer comprises 0.15 M NaCl and 1 mM hydrogen peroxide. Three liquid samples are prepared, each sample 0.1 mL. […]

[2] = target: acetylcholine esterase (Homo sapiens, UniProt P22303); experiment: electrochemical flow cell assay of inhibition of acetylcholine esterase (esterase/choline oxidase/peroxidase cascade); type: biochemical
acetylcholine esterase, sequence (P22303 32-614): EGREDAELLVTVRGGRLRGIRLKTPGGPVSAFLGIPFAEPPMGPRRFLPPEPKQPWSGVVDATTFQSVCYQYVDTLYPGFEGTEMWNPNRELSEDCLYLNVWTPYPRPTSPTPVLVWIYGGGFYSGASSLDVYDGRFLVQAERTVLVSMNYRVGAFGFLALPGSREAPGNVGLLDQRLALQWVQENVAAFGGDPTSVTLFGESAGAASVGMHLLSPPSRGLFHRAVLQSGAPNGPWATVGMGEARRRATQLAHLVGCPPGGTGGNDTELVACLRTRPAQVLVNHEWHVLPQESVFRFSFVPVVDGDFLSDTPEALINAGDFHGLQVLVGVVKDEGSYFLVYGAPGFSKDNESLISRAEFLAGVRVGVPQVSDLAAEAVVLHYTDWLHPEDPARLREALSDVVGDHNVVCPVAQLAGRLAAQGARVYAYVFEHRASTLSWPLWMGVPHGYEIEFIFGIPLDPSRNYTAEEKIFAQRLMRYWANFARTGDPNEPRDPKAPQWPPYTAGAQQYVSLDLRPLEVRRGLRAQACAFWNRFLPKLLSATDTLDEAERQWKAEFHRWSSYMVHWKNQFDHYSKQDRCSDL
Experimental: An aqueous carrier liquid is prepared in an oxygen-containing atmosphere to comprise the buffer of Example 1 and acetylcholine, the total volume of the liquid being less than 0.1 mL. Two samples are prepared. The first sample contains only the buffered acetylcholine solution; the second sample contains the liquid carrier and 100 pg malathion, an insecticide.
The first sample is introduced into the flow cell through the inlet, and the working electrode is poised at +0.1 V versus the standard calomel electrode. The acetylcholine in the solution is hydrolyzed by the esterase on the electrode, producing choline, which, in turn, combines with dissolved oxygen to form hydrogen peroxide. The hydrogen peroxide is electroreduced to water. An electric current is produced between the electrodes as a result. The current produced provides a baseline against which current produced as a result of enzymatic inhibition is measured.

horseradish peroxidase, sequence (P00433 31-338): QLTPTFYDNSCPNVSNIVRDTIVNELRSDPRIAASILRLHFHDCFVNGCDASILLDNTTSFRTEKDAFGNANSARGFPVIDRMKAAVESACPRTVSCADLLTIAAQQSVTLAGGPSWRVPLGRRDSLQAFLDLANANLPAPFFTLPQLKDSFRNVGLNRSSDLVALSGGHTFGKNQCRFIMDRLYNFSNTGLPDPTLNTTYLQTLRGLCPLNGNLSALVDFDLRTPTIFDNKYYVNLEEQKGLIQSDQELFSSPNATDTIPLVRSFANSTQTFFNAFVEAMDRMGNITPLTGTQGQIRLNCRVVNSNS

| SMILES | current passing from one electrode to another, versus baseline (inhibition of catalytic activity of horseradish peroxidase) [1] | current passing from one electrode to another, versus baseline (inhibition of catalytic activity of acetylcholine esterase) [2] |
| --- | --- | --- |
| [N-]=[N+]=[N-].[Na+] [azide, sodium azide] | decreased | – |
| CCOC(=O)CC(SP(=S)(OC)OC)C(=O)OCC (centres unmarked) [malathion] | – | decreased |
